Measured values taken from patent publication EP0342577B1, “Use of dihydropyridine derivatives for the prophylaxis or treatment of cerebral circulation disorders” (YOSHITOMI PHARMACEUTICAL INDUSTRIES, LTD., priority 1988, dated 1989).

What was measured:
[1] = tested on: Cerebral blood flow amount; assay: Selectivity in cerebral hyperkinemic action: cerebral blood flow amount (electromagnetic flow meter, left vertebral artery); type: in vivo; details: dogs, intravenous; for Cerebral blood flow amount ED200: dose at which the rate of increase is 200%
Experimental: (§1) The selectivity in cerebral hyperkinemic action was studied by examining the rates of increase in coronary blood flow amount and cerebral blood flow amount as to various dihydropyridine derivatives.
(§2) Various dihydropyridine derivatives were intravenously administered to dogs (weighing 9 - 16 kg, 4 animals per group) at a dose of 1 - 100 µg/kg body weight. At the lapse of 1, 3, 5, 10, 30, 60, 90 and 120 minutes after the intravenous administration, the coronary blood flow amount and cerebral blood flow amount were measured, and the rates of increase in the blood flow amount were estimated.
(§3) Cerebral blood flow was measured by equipping the left vertebral artery with the probe of the electromagnetic flow meter, and recorded continuously on the polygraph.
(§4) The ED200 (µg/kg body weight) indicates the dose at which the rate of increase is 200%.

[2] = tested on: Coronary blood flow amount; assay: Selectivity in cerebral hyperkinemic action: coronary blood flow amount (electromagnetic flow meter, left coronary artery circumflex ramus); type: in vivo; details: dogs, intravenous; for Coronary blood flow amount ED200: dose at which the rate of increase is 200%
Experimental: as §1, §2
Coronary blood flow was measured by equipping the left coronary artery circumflex ramus with the probe of the electromagnetic flow meter, and recorded on the polygraph.
as §4

[3] = tested on: Cerebral blood flow amount; assay: Duration time of cerebral hyperkinemic action: cerebral blood flow with the lapse of time; type: in vivo; parameters: unit not given here; details: dogs, intravenous, 30 µg/kg body weight
Experimental: as §2, §3
By examining the rate of increase in cerebral blood flow by various dihydropyridine derivatives with the lapse of time, the duration of cerebral hyperkinemic action was studied.

[4] = tested on: both common carotid arteries-ligated rats; assay: Inhibitory effect on symptoms of both common carotid arteries-ligated rats; type: in vivo, Spontaneously hypertensive rats (SHR·SR); details: SHR·SR rats, oral, dose 0.1 mg/kg, given one hour before ligation; neural symptom score 0 (normal) to 4 (death) two hours after skin suture; control (None) 2.8
Experimental: Spontaneously hypertensive rats (SHR·SR; Japan Charles River Co.) were used for the experiment (9-10 rats per group).
The compound 2-2 of the present invention was orally administered forsively to the rats at a dose of 10 ml/kg. To the control group was administered 0.3% Tween® 80 solely at a dose of 10 ml/kg. One hour later, cervical part was incised and both common carotid arteries were ligated with a suture thread almost simultaneously. Two hours after skin suture, observation was made for their neural symptom and/or death. The results are expressed in five-rank scores below.

Row | Compound | Cerebral blood flow amount Increase rate (%) ([1]; dose 10 µg/kg body weight) | Cerebral blood flow amount Increase rate (%) ([1]; dose 30 µg/kg body weight) | Cerebral blood flow amount Increase rate (%) ([1]; dose 100 µg/kg body weight) | Cerebral blood flow amount ED200 [1] [µg/kg body weight] | Coronary blood flow amount Increase rate (%) ([2]; dose 10 µg/kg body weight) | Coronary blood flow amount Increase rate (%) ([2]; dose 30 µg/kg body weight) | Coronary blood flow amount Increase rate (%) ([2]; dose 100 µg/kg body weight) | Coronary blood flow amount ED200 [2] [µg/kg body weight] | Rate of increase in cerebral blood flow amount ([3]; 5 min after administration) | Rate of increase in cerebral blood flow amount ([3]; 10 min after administration) | Rate of increase in cerebral blood flow amount ([3]; 30 min after administration) | Rate of increase in cerebral blood flow amount ([3]; 60 min after administration) | Rate of increase in cerebral blood flow amount ([3]; 120 min after administration) | Average score [4] | Cerebral blood flow amount Increase rate (%) ([1]; dose 3 µg/kg body weight) | Coronary blood flow amount Increase rate (%) ([2]; dose 3 µg/kg body weight) | Cerebral blood flow amount Increase rate (%) ([1]; dose 1 µg/kg body weight) | Coronary blood flow amount Increase rate (%) ([2]; dose 1 µg/kg body weight)
1 | COC(=O)C1=C(C)NC(C)=C(C(=O)OCCc2ccc(N3CCN(C(c4ccccc4)c4ccccc4)CC3)cc2)C1c1cccc([N+](=O)[O-])c1 (stereo not drawn) [Compound 2-2, 2-[p-(4-Benzhydrylpiperazino)phenyl]ethyl methyl 2,6-dimethyl-4-(3-nitrophenyl)-1,4-dihydropyridine-3,5-dicarboxylate] | 197 | 301 | 433 | 11 | 125 | 174 | 207 | 75 | 137 | 170 | 285 | 300 | 237 | 1.7 |  |  |  | 
2 | COC(=O)C1=C(C)NC(C)=C(C(=O)OCCN(C)Cc2ccccc2)C1c1cccc([N+](=O)[O-])c1 (stereo not drawn) [Nicardipine, reference compound] | 197 | 238 |  | 9.7 | 206 | 240 |  | 9.7 | 237 | 189 | 129 | 109 |  |  | 165 | 154 |  | 
3 | COC(=O)C1=C(C)NC(C)=C(C(=O)OCCc2ccc(N3CCN(C(c4ccccc4)c4ccccc4)CC3)cc2)C1c1cc(C#N)ccn1 (stereo not drawn) [Compound 1-2, 2-[p-(4-Benzhydrylpiperazino)phenyl]ethyl methyl 2,6-dimethyl-4-(4-cyano-2-pyridyl)-1,4-dihydropyridine-3,5-dicarboxylate] | 186 | 223 | 385 | 15 | 131 | 156 | 246 | 48 | 183 | 222 | 190 | 151 | 132 |  |  |  |  | 
4 | COCCOC(=O)C1=C(C)NC(C)=C(C(=O)OC(C)C)C1c1cccc([N+](=O)[O-])c1 (stereo not drawn) [Nimodipine, reference compound] | 196 |  |  | 13 | 191 |  |  | 16 | 163 | 152 | 129 | 113 |  |  | 167 | 141 | 146 | 125
